According to publication PMC3502511, “Inhibition of the Prokaryotic Pentameric Ligand-Gated Ion Channel ELIC by Divalent Cations” (PLoS Biology, 2012):
Like-named read-outs stand apart in the source and are kept apart here.

Experiments:
Format in all cases: cell-based, Erwinia chrysanthemi
ELIC WT [1] = target: T1, ELIC WT (Dickeya chrysanthemi, UniProt P0C7B7, INS163G); assay: cell-based; settings: WT; for Slope: Schild plot slope
T1 construct: expressed in transfected cells; host or cells: X. laevis oocytes (cRNA injection, pTLN vector)
Method: (§1) Constructs containing the gene of either the WT or mutant channels preceded by the signal sequence of the chicken α7nAchR were cloned into the pTLN vector for expression in X. laevis oocytes. After linearization of the plasmid DNA by MluI, capped complementary RNA was transcribed with the mMessage mMachine kit (Ambion) and purified with the RNeasy kit (Qiagen). For expression, 1–50 ng of RNA was injected into defolliculated oocytes. Two-electrode voltage clamp measurements were performed 1 d after injection at 20°C (OC-725B, Warner Instrument Corp.). Currents were recorded in bath solutions containing 10 mM HEPES (pH 7), 130 mM NaCl, and the indicated concentrations of cysteamine and divalent cations. In case of solutions containing Zn^2+, cysteamine was replaced by propylamine. The membrane potential in all dose–response measurements was set to −40 mV. As ELIC is permeable to divalent cations, we tested if endogenous calcium-activated chloride channels affected our measurements. To chelate intracellular calcium ions, the oocytes were incubated for 15 to 30 min in bath solutions lacking divalent ions but containing 10 µM BAPTA-AM.

ELIC R91A = target: T2, ELIC R91A (Dickeya chrysanthemi, UniProt P0C7B7, INS163G/R91A); assay: Two-electrode voltage clamp, ELIC R91A in oocytes; settings: R91A
T2 construct: expressed in transfected cells; host or cells: X. laevis oocytes
Method: as §1

ELIC D113A/D158A = target: T3, ELIC D113A/D158A (Dickeya chrysanthemi, UniProt P0C7B7, D113A/D158A/INS163G); assay: cell-based; settings: agonist propylamine; for EC50: 113A/158A
T3 construct: expressed in transfected cells; host or cells: X. laevis oocytes
Method: as §1

ELIC H168A = target: T4, ELIC H168A (Dickeya chrysanthemi, UniProt P0C7B7, H168A/INS163G); assay: Two-electrode voltage clamp, ELIC H168A in oocytes; settings: agonist propylamine
T4 construct: expressed in transfected cells; host or cells: X. laevis oocytes
Method: as §1

ELIC = target: T5, ELIC (Dickeya chrysanthemi, UniProt P0C7B7, INS163G); assay: Agonist concentration jumps, outside-out patches from HEK 293 cells expressing ELIC
T5 construct: expressed in transfected cells; host or cells: HEK 293 cells (ATCC CRL-1573), pcDNA3
Method: Human embryonic kidney 293 cells (American Type Culture Collection-CRL-1573;LGC Promochem) were maintained at 37°C in a 95% air/5% CO2 incubator in DMEM supplemented with 0.11 g/l sodium pyruvate, 10% (v/v) heat-inactivated fetal bovine serum, 100 U/ml penicillin G, 100 µg/ml streptomycin sulfate, and 2 mM L-glutamine (Invitrogen). Cells (passaged every 2 d, up to 30 times) were plated and transfected by calcium phosphate-DNA coprecipitation, with a total amount of DNA of 3 µg/dish (82% ELIC and 18% eGFP DNA, both subcloned in pcDNA3).
Cells were bathed in an extracellular solution containing (mM): 150 KCl, 0.05 or 0.2 CaCl2, and 10 HEPES, pH adjusted to 7.4 with KOH (osmolarity 310 mOsm). Patch pipettes were pulled from thick-walled borosilicate glass (GC150F; Harvard Apparatus) and fire polished to a resistance of 8–12 MΩ. Intracellular solution contained (mM): 150 KCl, 0.5 CaCl2, 5 EGTA, and 10 HEPES, pH adjusted to 7.4 with KOH. Agonist-evoked currents were recorded at 20°C with an Axopatch 200B amplifier (Molecular Devices) from outside-out patches held at −100 mV. Patches were stepped to this holding voltage 0.2 s before the agonist was applied and otherwise held at −40 mV. No correction for junction potential was applied (calculated value 0.2 mV). Currents were filtered at 5 kHz, digitized at 50 kHz with Digidata 1322A, and saved directly on computer with Clampex software (all MDS Analytical Technologies).
All concentration jumps were performed using a piezo stepper (Burleigh instruments) with an application tool made from theta tube glass (Hilgenberg; final tip diameter, 150 µm). Voltage commands for the piezo stepper were 200 ms square pulses conditioned by low-pass eight-pole Bessel filtering (−3 dB frequency 5 kHz) to smooth oscillations. Actual exchange time was estimated by recording the open-tip response to the application of diluted extracellular solution (70% water) after rupture of the patch. Only patches in which the 20%–80% exchange time was faster than 250 µs were included in the analysis.
Agonist solutions were freshly prepared every day from 1 M stock solutions. Propylamine was applied at a concentration known to elicit maximum response (20 mM and 50 mM, for 50 and 200 µM Ca^2+, respectively). Traces shown are averages of 5 or 10 individual agonist currents, separated by at least 10 s. Responses were averaged, and the time course of activation and deactivation (between 95% and 5% of the peak current level) was fitted with one exponential component (program Clampfit 9.0).

ELIC H176A = target: T6, ELIC H176A (Dickeya chrysanthemi, UniProt P0C7B7, H176A/INS163G); assay: Two-electrode voltage clamp, ELIC H176A in oocytes; settings: agonist propylamine
T6 construct: expressed in transfected cells; host or cells: X. laevis oocytes
Method: as §1

ELIC WT [2] = target: T7, ELIC WT (Dickeya chrysanthemi, UniProt P0C7B7); assay: cell-based; settings: WT, agonist propylamine
T7 construct: expressed in transfected cells; host or cells: X. laevis oocytes (cRNA injection, pTLN vector)
Method: as §1

[3] = Ca^2+ 50 µM, propylamine 20 mM (last line, repeat)
[4] = Ca^2+ 50 µM, propylamine 20 mM, −100 mV (first line)
[5] = Ca^2+ 200 µM, propylamine 20 mM
[6] = Ca^2+ 200 µM, propylamine 50 mM

What does the source list for [Sr+2] [Sr^2+]?
Ki (ELIC WT [1]; Schild analysis, agonist cysteamine, read-out: Ki app): 0.85 mM; Slope (ELIC WT [1]; agonist cysteamine): 0.9±0.02; pA (ELIC WT [1]; Schild plot x-intercept (log of mM), agonist cysteamine, −40 mV): −0.07±0.02

Which Ki (ELIC R91A; Schild analysis, read-out: Ki app) does the source give for C[N+](C)(C)C [TMA, tetramethylammonium] here?
The Ki was 6 mM.

What about the Slope (ELIC R91A; Schild plot slope) of the same compound?
Its Slope is 0.8±0.1.

What about the pA (ELIC R91A; agonist cysteamine) of the same compound?
Its pA is 0.78±0.18.

For [Zn+2] [Zn^2+, zinc], which Ki (ELIC WT [1]; Schild analysis, agonist propylamine, read-out: Ki app) is on record?
Its Ki is 0.007 mM.

What about the Slope (ELIC WT [1]; agonist propylamine) of the same compound?
The Slope was 1.2±0.01.

And the pA (ELIC WT [1]; Schild plot x-intercept, agonist propylamine)?
Its pA is −2.16±0.13.

And the Ki (ELIC WT [1]; agonist propylamine, read-out: Schild plot x-intercept)?
Its Ki is 0.008 mM.

And the “modulation in the double mutant” value (ELIC D113A/D158A; D113A/D158A)?
The value was “abolish”.

Which EC50 (ELIC H168A; Zn^2+ 0 mM) does the source give for CCCN [propylamine] here?
Its EC50 is 0.67 mM.

And the EC50 (ELIC H168A; Zn^2+ 0.01 mM)?
The EC50 was 1.17 mM.

And the EC50 (ELIC H168A; Zn^2+ 0.05 mM)?
The EC50 was 4.82 mM.

What about the EC50 (ELIC H168A; Zn^2+ 0.1 mM) of the same compound?
The EC50 was 12.2 mM.

What about the τdecay (ELIC; [3]) of the same compound?
Its τdecay is 33.5 ± 6.9 ms.

And the τrise (ELIC; [3])?
Its τrise is 19.6 ± 3.1 ms.

What about the τdecay (ELIC; [4]) of the same compound?
The τdecay was 34.7 ± 5.6 ms.

What about the τrise (ELIC; [4]) of the same compound?
The τrise was 16.7 ± 1.5 ms.

And the τdecay (ELIC; [5])?
The τdecay was 23.9 ± 3.1 ms.

What about the τrise (ELIC; [5]) of the same compound?
Its τrise is 38.5 ± 6.7 ms.

And the τdecay (ELIC; [6])?
The τdecay was 36.7 ± 12.7 ms.

And the τrise (ELIC; [6])?
The τrise was 16.4 ± 2.2 ms.

And the EC50 (ELIC H176A; Zn^2+ 0 mM)?
Its EC50 is 5.16 mM.

What about the EC50 (ELIC H176A; Zn^2+ 0.01 mM) of the same compound?
Its EC50 is 11.9 mM.

What about the EC50 (ELIC H176A; Zn^2+ 0.025 mM) of the same compound?
The EC50 was 25.5 mM.

What about the EC50 (ELIC D113A/D158A; Zn^2+ 0 mM) of the same compound?
The EC50 was 3.7 mM.

What about the EC50 (ELIC D113A/D158A; Zn^2+ 0.01 mM) of the same compound?
The EC50 was 4.56 mM.

And the EC50 (ELIC D113A/D158A; Zn^2+ 0.1 mM)?
The EC50 was 4.22 mM.

And the EC50 (ELIC WT [2]; Zn^2+ 0.01 mM)?
Its EC50 is 0.92 mM.

What about the EC50 (ELIC WT [2]; Zn^2+ 0.05 mM) of the same compound?
Its EC50 is 3.72 mM.

What about the EC50 (ELIC WT [2]; Zn^2+ 0.1 mM) of the same compound?
Its EC50 is 10.1 mM.
